pIC50: −log10 of the molar value.
Experiments:
[1] = molecular target: Serine/threonine-protein kinase pim-1 (Homo sapiens, UniProt P11309); experiment: Inhibition of recombinant human Pim1
[2] = Cytotoxicity against human DU145 cells assessed as cell growth inhibition after 72 hrs by Alamar blue assay; format: functional, cell-based; settings: DU-145, 72 h

Serine/threonine-protein kinase pim-1, sequence (P11309 whole entry): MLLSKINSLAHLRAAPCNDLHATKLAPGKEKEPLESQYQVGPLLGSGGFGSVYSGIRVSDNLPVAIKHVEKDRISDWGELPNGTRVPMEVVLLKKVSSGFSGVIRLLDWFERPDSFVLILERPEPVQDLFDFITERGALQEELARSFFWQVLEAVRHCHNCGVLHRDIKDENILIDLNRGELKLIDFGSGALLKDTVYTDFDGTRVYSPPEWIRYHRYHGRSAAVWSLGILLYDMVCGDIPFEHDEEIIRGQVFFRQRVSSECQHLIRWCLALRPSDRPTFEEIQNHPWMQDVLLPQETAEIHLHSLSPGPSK

Row | pIC50 [1] | Compound | pIC50 [2]
1 | 4.57 | O=C1C=C(CBr)C(=O)c2c(O)ccc(O)c21 | –
2 | 5.52 | CC(=O)Oc1ccc(O)c2c1C(=O)C=CC2=O | –
3 | 4.55 | Cc1cc(O)c2c(c1)C(=O)C=CC2=O [RAMENTACEONE] | –
4 | 4.55 | O=Cc1cc(O)c2c(c1O)C(=O)C=CC2=O | –

Continued, compound first:

Row | Compound | pIC50 [1] | pIC50 [2]
5 | Cc1cc(O)c2c(c1)C(=O)c1cc(O)cc(O)c1C2=O [EMODIN] | 5.60 | 5.69
6 | Oc1ccc(O)c2c(O)c3c(O)ccc(O)c3c(O)c12 | 4.24 | –
7 | CC(C)C(C)OC1CC(=O)CC2C(=O)c3c(O)ccc(O)c3C(=O)C12 (stereo unspecified) | 5.44 | 5.39
8 | O=C1C(CO)=C(CO)C(=O)c2c(O)ccc(O)c21 | 5.13 | –
9 | CC(C)(C)OC1CC(=O)CC2C(=O)c3cccc(O)c3C(=O)C12 (stereo unspecified) | 4.62 | –
10 | COc1c(O)c(O)c2c(c1O)C(=O)c1cc(C)cc(O)c1C2=O | 4.67 | 5.41
11 | COc1cccc2c1C(=O)c1c(O)ccc(O)c1C2=O | 4.94 | –
12 | CC(C)(C)OC1CC(O)CC2C(=O)c3c(O)ccc(O)c3C(=O)C12 (stereo unspecified) | 5.46 | 5.49
